Experimental data from the supplement of paper PMC10307832.

How the values were obtained:
Assay in all cases: relative viability (nuclei count vs DMSO), 5 days (fraction); higher = more cells survive
[1] = compound: Cc1ccc(NC(=O)c2ccc(CN3CCN(C)CC3)cc2)cc1Nc1nccc(-c2cccnc2)n1 [Imatinib] + CCNC(=O)c1noc(-c2cc(C(C)C)c(O)cc2O)c1-c1ccc(CN2CCOCC2)cc1 [Luminespib] (partner 0.01 µM)
Procedure, shortened: (§1)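 For relative viability, nuclei counts in treated wells were divided by those in vehicle wells. Lung cancer cell lines had been pin-tool dosed in 1536-well plates the day after seeding and cultured for 5 days, then fixed and stained in one step (final 0.05% Triton X-100, 1% formaldehyde, 1 ug/ml Hoechst) and imaged at 4×. Doses were one drug alone or a fixed anchor-drug dose plus five library-drug doses (not always all listed) in √10 steps, and values are duplicate-plate medians.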

[2] = compound: Cc1ccc(NC(=O)c2ccc(CN3CCN(C)CC3)cc2)cc1Nc1nccc(-c2cccnc2)n1 [Imatinib] + CC1(C)CCC(c2ccc(Cl)cc2)=C(CN2CCN(c3ccc(C(=O)NS(=O)(=O)c4ccc(N[C@H](CCN5CCOCC5)CSc5ccccc5)c(S(=O)(=O)C(F)(F)F)c4)cc3)CC2)C1 [Navitoclax] (partner 0.5 µM)
Procedure, shortened: as §1

[3] = compound: Cc1ccc(NC(=O)c2ccc(CN3CCN(C)CC3)cc2)cc1Nc1nccc(-c2cccnc2)n1 [Imatinib] + Cc1nc(NC(=O)N2CCC[C@H]2C(N)=O)sc1-c1ccnc(C(C)(C)C(F)(F)F)c1 [Alpelisib] (partner 2 µM)
Procedure, shortened: as §1

[4] = compound: Cc1ccc(NC(=O)c2ccc(CN3CCN(C)CC3)cc2)cc1Nc1nccc(-c2cccnc2)n1 [Imatinib] + CS(=O)(=O)CCNCc1ccc(-c2ccc3ncnc(Nc4ccc(OCc5cccc(F)c5)c(Cl)c4)c3c2)o1 [Lapatinib] (partner 2 µM)
Procedure, shortened: as §1

Row | Cell Line | relative viability ([1]; first compound 0.02 µM) | relative viability ([1]; first compound 0.06325 µM) | relative viability ([1]; first compound 0.2 µM) | relative viability ([1]; first compound 0.6325 µM) | relative viability ([1]; first compound 2 µM) | relative viability ([2]; first compound 0.02 µM) | relative viability ([2]; first compound 0.06325 µM) | relative viability ([2]; first compound 0.6325 µM) | relative viability ([2]; first compound 2 µM) | relative viability ([3]; first compound 0.02 µM) | relative viability ([3]; first compound 0.06325 µM) | relative viability ([3]; first compound 0.2 µM) | relative viability ([3]; first compound 0.6325 µM) | relative viability ([3]; first compound 2 µM) | relative viability ([2]; first compound 0.2 µM) | relative viability ([4]; first compound 0.02 µM) | relative viability ([4]; first compound 0.06325 µM) | relative viability ([4]; first compound 0.2 µM) | relative viability ([4]; first compound 0.6325 µM) | relative viability ([4]; first compound 2 µM)
1 | ChaGo-K-1 | 0.585 | 0.592 | 0.603 | 0.624 | 0.56 | 1.04 | 0.927 | 1.37 | 1.09 | – | – | – | – | – | – | – | – | – | – | –
2 | EKVX | – | 0.712 | 0.817 | 0.926 | 0.847 | 1.18 | 0.859 | 0.929 | 0.973 | 0.967 | 0.883 | 0.89 | 0.835 | 1.01 | 0.983 | 0.222 | 0.189 | 0.197 | 0.208 | 0.197
3 | EMC-BAC-2 | 1.25 | 1.5 | 1.36 | 1.14 | – | 1.18 | 1.49 | 1.24 | 1.22 | 0.823 | 0.81 | 0.877 | 0.788 | 0.844 | 1.31 | 0.937 | 0.702 | 0.833 | 0.972 | 0.873
4 | EPLC-272H | 0.312 | – | 0.456 | 0.306 | 0.14 | 1.22 | – | 1.11 | 1.06 | 1.04 | – | 0.987 | 1.03 | 0.843 | 1.12 | 0.779 | – | 0.97 | 1.17 | 0.835
5 | H3255 | 0.922 | 0.415 | – | 0.865 | 0.777 | 0.512 | 0.441 | 0.497 | 0.548 | 0.815 | – | 0.747 | 0.645 | 0.618 | 0.44 | 0.234 | – | 0.268 | 0.266 | 0.23
6 | HARA | 0.912 | – | 0.684 | 0.489 | 0.997 | 1.19 | 1.18 | 1.17 | 1.16 | 1 | 0.501 | 0.822 | 0.697 | 0.804 | 1.15 | 0.629 | 0.996 | 0.83 | 0.748 | 0.781
7 | HCC-15 | 0.311 | – | 0.358 | 0.33 | 0.297 | 0.736 | 0.522 | 0.722 | 0.709 | – | 0.853 | 0.883 | 0.814 | 0.885 | 0.764 | – | 0.582 | 1 | 0.901 | 0.839
8 | HCC-44 | 1.24 | 0.552 | – | 0.959 | – | 1.11 | 1.05 | 0.858 | 0.866 | 0.895 | 0.819 | 0.941 | 0.71 | 0.791 | 1.03 | 1.13 | 1.15 | – | 0.991 | 0.934
